Where two headings read alike, the source gives them in different places. Each block holds one molecule with its values, some of them ahead of it. Where a SMILES comes first, the peptide text is derived from it. The star is where a group is joined. Doxorubicin(3'-N) = COc1cccc2c1C(=O)c1c(O)c3c(c(O)c1C2=O)C[C@@](O)(C(=O)CO)C[C@@H]3O[C@H]1C[C@H](N*)[C@H](O)[C@H](C)O1
What was measured:
KPC960 cells = assay: CCK-8 cytotoxicity; assay type: cell-based, human; conditions: 48 h treatment
Procedure: (§1) The cytotoxicity of F68-FDOX was assessed via a cell counting kit-8 (CCK-8) assays. First, 1 × 10^5 HT29, MDA-MB231, KPC960 or H9C2 cells were seeded into 96-well cell culture plates. […] Finally, cell viability was measured by a microplate reader (VERSAmaxTM; Molecular Devices Corp., USA) with 450 nm of wavelength.

H9C2 cells = assay: CCK-8 cytotoxicity; assay type: cell-based, rat; conditions: 48 h treatment, normal cardiomyocytes
Procedure: as §1

[1] = Pharmacokinetics after intravenous injection; assay type: in vivo, mice
Procedure: (§2) The 6-week male BALB/c and BALB/c nu/nu mice were purchased from NaraBio (Gyeonggi-do, Republic of Korea). Mice were bred under pathogen-free conditions in the Korea Institute of Science and Technology (KIST). All experiments with animals were performed in compliance with the relevant laws and institutional guidelines of Institutional Animal Care and Use Committee (IACUC; approved number of 2020-123) in Korea Institute of Science and Technology (KIST). […] After treatment, blood samples were collected from mice by cardiac puncture after deep anesthesia at pre-determined times, followed by analysis with HPLC with fluorescence detector. The PK parameters including area under the curves (AUC), clearance (CL), volume of distribution (Vd) and half-life (t1/2) were calculated using a WinNonlin software. […] The fluorescence intensities in the tumor regions were quantified using a Living Image software (PerkinElmer, Waltham, MA, USA). The ex vivo NIRF imaging of collected major organs after 9 h of injection was also performed using IVIS Lumina Series III system. […] For this analysis, each tissue was cut into 8-μm sections using rotary microtome and analyzed via confocal laser scanning microscope (CLSM) equipped with 405 diode (405 nm) and HeNe-Red (633 nm) lasers.

HT29 tumor-bearing mice [2] = assay: Pharmacodynamics, histological analysis of organs and tumor tissues (CLSM); assay type: in vivo; conditions: i.v. 4 mg/kg based on DOX, 9 h after injection
Procedure: as §2

HT29 tumor = assay: Antitumor activity, colon tumor model; assay type: in vivo
Procedure: (§3) The antitumor activity was evaluated in colon, breast and pancreatic cancer models, which were prepared by subcutaneous injection with 1 × 10^7 HT29, MDA-MB231 or KPC960 cells, respectively. […] The mice were treated once every three days, and tumor volumes were calculated as the largest diameter × smallest diameter^2 × 0.53, every 2 days. The mice with a tumor size of 2000 mm^3 or higher were counted as dead. To analyze the antitumor activity in a single cell level, the tumor tissues were collected on day 9, and single cell were isolated from the tumor tissues using a Tumor Dissociation Kit. After cell counting, single cells were stained with Annexin V for 1 h in room temperature and analyzed via flow cytometer.

[3] = system: colon (HT29) tumor tissues; assay: Annexin V staining of single tumor cells (flow cytometry); assay type: in vivo, mice; conditions: day 9 after treatment, mean
Procedure: as §3

BALB/c mice [4] = assay: Toxicity study after multi-dosage; assay type: in vivo
Procedure: (§4) The safety of F68-FDOX treatment was assessed by histological and hematological analyses. Briefly, DOX (4 mg/kg), FRRG-DOX (4 mg/kg based on DOX contents) or F68-FDOX (4 mg/kg based on DOX contents) were intravenously injected into BALB/c mice. On day 9 after treatments, major organs were collected from mice, and structural abnormalities and apoptosis in organ tissues were assessed by staining with H&E or TUNEL, respectively. In case of hematological analyses, blood samples were collected from mice on day 9. For the complete blood count (CBC) analyses, each blood sample was mixed with EDTA, and a portion of blood sample was centrifuged at 2100 rpm for 20 min to obtain blood plasma. The following factors in blood samples were measured; albumin/globulin ratio (A/G), troponin-I, albumin (Alb), total protein (TP), alanine aminotransferase (ALT), total cholesterol (T-Chol), blood urea nitrogen (BUN), alkaline phosphatase (ALP), red blood cell (RBC), white blood cell (WBC), mean corpuscular hemoglobin (MCH), mean corpuscular volume (MCV), hematocrit (HCT), hemoglobin (HGB) and platelet (PLT). To assess the safety of F68-FDOX treatment after multiple-dosage, DOX (4 mg/kg), FRRG-DOX (4 mg/kg based on DOX contents) or F68-FDOX (4 mg/kg based on DOX contents) were injected into mice once every three days. Then, histological and hematological analyses were performed as described above.

mice = conditions: 5 mg/kg free DOX two times (Total 10 mg/kg); ref [42]; cited from earlier work
Procedure: […] […] Even though same dose of equal drugs was administered into the mice, the outcomes can be varied according to the not only the number and intervals of the administration, but also different reactivity by species, feeding environment and age of the ...

BALB/c mice [5] = assay: Toxicity study after single-dosage
Procedure: as §4

[6] = assay type: in vitro ADME, mouse
Text: The carrier-free doxorubicin (DOX) prodrug nanoparticles were designed as an alternative formulation to overcome several problems of conventional nano-sized drug delivery system in the terms of technical- and industrial-aspects. […] This absolutely simplified one-step synthesis protocol allowed 100 g batch of preparation as described in “Methods” section. […] In addition, their precise and concise structure allow easy quality control (QC) after synthesis; thus, we could verify the successful preparation of FRRG-DOX by confirming chemical structure, exact mass and purity via ^1H NMR, MALDI-TOF (calculated mass: 1102.17 Da, measured mass: 1102.595 m/z) and HPLC (99%), respectively (Additional file 1: Fig. S2). Importantly, FRRG-DOX molecules self-assembled into prodrug nanoparticles by its intermolecular π-π stacking hydrophobic interactions without any additional carrier materials, resulting in high drug loading (> 50%). […] This was clearly supported by MALDI-TOF measurement, wherein the molecular weights of G-DOX (calculated mass: 600.58 Da, measured mass: 656.4 m/z [M + Li] and 657.4 m/z [M + Li + H]) were confirmed at the newly appeared peak (13 min) in the HPLC spectrum after incubation of F68-FDOX with cathepsin B (Additional file 1: Fig. S6). […]

[7] = assay type: physicochemical
Procedure: Finally, we developed F68-FDOX as a lyophilized powder form and evaluated the long-term storage stability of lyophilized F68-FDOX powder stored for 3, 6, 12 months in the low (− 4 °C), room (37 °C) or accelerated (60 °C) condition; for these studies, size distribution, chemical structure and purity were analyzed after reconstitution of lyophilized powder stored at each condition (Additional file 1: Fig. S7–S9). […] Taken together, the manufacturing operation for mass production of F68-FDOX was optimized for preclinical development, and their physicochemical characterization, such as size distribution, particle stability, target enzyme-specificity, and even the long-term storage stability was successfully evaluated in vitro.
To prepare carrier-free prodrug nanoparticles, the cancer-specific prodrug was simply synthesized by conjugating cathepsin B-specific cleavable tetrapeptide (Phe-Arg-Arg-Gly; FRRG) to DOX via one-step reaction. […] The FRRG-DOX was purified using Sep-Pak C18 column chromatography and the resulting filtrate was analyzed via RP-HPLC (Agilent 1200 Series HPLC System). […] The long-term storage stability of FRRG-DOX power was assessed after storage of 3, 6, 12 months in the low (− 4 °C), room (37 °C) or accelerated (60 °C) condition, followed by analysis of size, chemical structure and purity as described above. […]

HT29 tumor-bearing mice [8] = conditions: mouse, in vivo, iv, 4 mg/kg
Procedure: as §2

BALB/c mice [9] = conditions: mouse, in vivo, iv, 10 mg/kg
Procedure: as §4

[10] = mice, i.v., 4 mg/kg based on DOX contents, WinNonlin
[11] = treatment five times with 3 days-intervals
[12] = BALB/c mice, i.v. 10 mg/kg based on DOX, single dose

Molecule: COc1cccc2c1C(=O)c1c(O)c3c(c(O)c1C2=O)C[C@@](O)(C(=O)CO)C[C@@H]3O[C@H]1C[C@H](N)[C@H](O)[C@H](C)O1 [DOX, doxorubicin]
IC50 (KPC960 cells): 7.32 µM | IC50 (H9C2 cells): 13.8 µM | CL [1, 10]: 3.02 ± 0.638 mL/min/kg | Vd [1, 10]: 0.304 ± 0.0976 L/kg | half-life (t1/2) [1, 10]: 1.33 ± 0.23 h | AUClast ([1]; mice, i.v., 4 mg/kg based on DOX contents, blood, HPLC with fluorescence detector, WinNonlin): 22.18 ± 4.52 µg·h/mL | distribution in major organs and tumor tissues (histology) (HT29 tumor-bearing mice [2]): non-specifically distributed in all the major organs and low tumor accumulation | colon tumor volume on day 9 after treatment (HT29 tumor; HT29 s.c. tumor, i.v. 4 mg/kg based on DOX once every three days): 478.75 ± 49.87 mm^3 | time within which all mice were dead (tumor model) (HT29 tumor; HT29 tumor-bearing mice, i.v. 4 mg/kg once every three days): ≤ 9 days | percentage of apoptotic (Annexin V-positive) tumor cells [3]: 17.7 ± 1.51% | histology of liver, spleen and heart tissues, multi-dosage (BALB/c mice [4]; day 7, H&E): severe tissue damages | hematological parameters, multi-dosage (BALB/c mice [4]; day 7, treatment with 3 days-intervals): remarkably got out from the normal range | body weight change, multi-dosage (BALB/c mice [4]; [11]): severe body weight loss | time within which all mice were dead, multi-dosage (BALB/c mice [4]; [11]): ≤ 7 days | time within which all mice were dead (mice): within two weeks | body weight change, single-dosage (BALB/c mice [5]; [12]): gradually reduced | time within which all mice were dead, single-dosage (BALB/c mice [5]; [12]): ≤ 9 days | complete blood count (CBC) analyses, single-dosage (BALB/c mice [5]; day 9, i.v. 10 mg/kg): severe leukopenia, oligocythemia and thrombocytopenia | serological examination (BUN, ALT, troponin-I), single-dosage (BALB/c mice [5]; day 9, i.v. 10 mg/kg): severe cardiac, renal and hepatic toxicity | major organ tissues stained with H&E or TUNEL, single-dosage (BALB/c mice [5]; day 9, i.v. 10 mg/kg based on DOX): elevated structural abnormalities with apoptosis

Molecule: COc1cccc2c1C(=O)c1c(O)c3c(c(O)c1C2=O)C[C@@](O)(C(=O)CO)C[C@@H]3O[C@H]1C[C@H](NC(=O)CNC(=O)[C@H](CCCNC(=N)N)NC(=O)[C@H](CCCNC(=N)N)NC(=O)[C@H](Cc2ccccc2)NC(C)=O)[C@H](O)[C@H](C)O1 [FRRG-DOX] (Ac-FRRG-{Doxorubicin(3'-N)})
AUCinf ([1]; mouse, in vivo, iv, 4 mg/kg): 407.71 ± 85.81 µg·h/mL | AUClast ([1]; mouse, in vivo, iv, 4 mg/kg): 345.99 ± 68.9 µg·h/mL | CL ([1]; mouse, in vivo, iv, 4 mg/kg): 0.1692 ± 0.0405 mL/min/kg | Vd ([1]; mouse, in vivo, iv, 4 mg/kg): 0.0832 ± 0.03185 L/kg | half-life (t1/2) ([1]; mouse, in vivo, iv, 4 mg/kg): 7.96 ± 4.59 h | body weight change, single-dosage (BALB/c mice [5]; [12]): no significant body weight loss

time of high stability without significant changes of size and polydispersity index in mouse serum [6]: ≥ 6 days | stability 24 h after reconstitution (size distribution, chemical structure, purity) [7]: no significant changes | AUCinf ([1]; mouse, in vivo, iv, 4 mg/kg): 1367.44 ± 14.35 µg·h/mL | AUClast ([1]; mouse, in vivo, iv, 4 mg/kg): 1281.17 ± 240 µg·h/mL | CL ([1]; mouse, in vivo, iv, 4 mg/kg): 0.0488 ± 0.0005 mL/min/kg | Vd ([1]; mouse, in vivo, iv, 4 mg/kg): 0.1 ± 0.00269 L/kg | time for which a detectable amount remained in the body ([1]; mouse, in vivo, iv, 4 mg/kg): 96 h | fluorescence intensity in tumor tissues relative to FRRG-DOX (NIRF) (HT29 tumor-bearing mice [8]): 2.42–2.71 fold | all hematological parameters, single-dosage (BALB/c mice [9]): in normal range
Molecule: Phe-Arg-Arg-Gly [F68-FDOX]
histology of liver, spleen and heart tissues, multi-dosage (BALB/c mice [4]; mouse, in vivo): without damage to the normal organs | body weight change, single-dosage (BALB/c mice [9]): no significant body weight loss | major organ tissues stained with H&E or TUNEL, single-dosage (BALB/c mice [9]): did not induce noticeable tissue damages

Source: publication PMC9531438, “Preclinical development of carrier-free prodrug nanoparticles for enhanced antitumor therapeutic potential with less toxicity” (Journal of Nanobiotechnology, 2022)
